Assay [1] relates to LB647-SCLC. Kind of assay: cells. It is filed as functional, cell-based, Homo sapiens. The conditions noted are these: Homo sapiens, LB647-SCLC.
Description: SANGER: Inhibition of human LB647-SCLC cell growth in a cell viability assay.
Assay [2] concerns CAL-148. In words: cells. It is filed as functional, cell-based, Homo sapiens. As to conditions: Homo sapiens, CAL-148.
Description: SANGER: Inhibition of human CAL-148 cell growth in a cell viability assay.
For assay [3], the system named is MONO-MAC-6. Kind of assay: cells. In kind it is functional, cell-based, Homo sapiens. As to conditions: Homo sapiens, MONO-MAC-6.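 Note: cell viability assay measuring growth inhibition of human MONO-MAC-6 cells.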
Description: SANGER: Inhibition of human MONO-MAC-6 cell growth in a cell viability assay.
The subject of assay [4] is SCLC-21H. In words: cells. As to conditions: Homo sapiens, SCLC-21H. It is filed as functional, cell-based, Homo sapiens.
Description: SANGER: Inhibition of human SCLC-21H cell growth in a cell viability assay.
Assay [5] relates to EB2. Kind of assay: cells. The conditions noted are these: Homo sapiens, EB2. It is filed as functional, cell-based, Homo sapiens.
Description: SANGER: Inhibition of human EB2 cell growth in a cell viability assay.
The subject of assay [6] is LU-165. Kind of assay: cells. It is filed as functional, cell-based, Homo sapiens. As to conditions: Homo sapiens, LU-165.
Description: SANGER: Inhibition of human LU-165 cell growth in a cell viability assay.
In assay [7] the test system is BL-70. In words: SANGER: Inhibition of human BL-70 cell growth in a cell viability assay. It is filed as functional, cell-based. As to conditions: Homo sapiens, BL-70.
In assay [8] the test system is NCI-H1963. In words: cells. The conditions noted are these: Homo sapiens, NCI-H1963. In kind it is functional, cell-based, Homo sapiens.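 Note: cell growth inhibition of the human line, determined with a cell viability assay.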
Description: SANGER: Inhibition of human NCI-H1963 cell growth in a cell viability assay.
Assay [9] has as its system COR-L279. In words: SANGER: Inhibition of human COR-L279 cell growth in a cell viability assay. It is filed as functional, cell-based. As to conditions: Homo sapiens, COR-L279.
For assay [10], the system named is NCI-H2171. In words: cells. In kind it is functional, cell-based, Homo sapiens. As to conditions: Homo sapiens, NCI-H2171.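 Note: growth inhibition of human NCI-H2171 cells, read out by a cell viability assay.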
Description: SANGER: Inhibition of human NCI-H2171 cell growth in a cell viability assay.
The subject of assay [11] is SUP-T1. Kind of assay: cells. In kind it is functional, cell-based, Homo sapiens. As to conditions: Homo sapiens, SUP-T1.
Description: SANGER: Inhibition of human SUP-T1 cell growth in a cell viability assay.
The test system of assay [12] is DG-75. Kind of assay: cells. As to conditions: Homo sapiens, DG-75. In kind it is functional, cell-based, Homo sapiens.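 Note: growth inhibition of DG-75 cells, read out with a cell viability assay.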
Description: SANGER: Inhibition of human DG-75 cell growth in a cell viability assay.
For assay [13], the system named is IMR-5. Kind of assay: cells. In kind it is functional, cell-based, Homo sapiens. The conditions noted are these: Homo sapiens, IMR-5.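 Note: growth inhibition of human IMR-5 cells, read out with a cell viability assay.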
Description: SANGER: Inhibition of human IMR-5 cell growth in a cell viability assay.
Assay [14] deals with NCI-H2081. In words: cells. In kind it is functional, cell-based, Homo sapiens. The conditions noted are these: Homo sapiens, NCI-H2081.
Description: SANGER: Inhibition of human NCI-H2081 cell growth in a cell viability assay.
In assay [15] the test system is Kasumi 1. In words: cells. In kind it is functional, cell-based, Homo sapiens. As to conditions: Homo sapiens, Kasumi 1.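 Note: growth inhibition of human Kasumi-1 cells, read out by a cell viability assay.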
Description: SANGER: Inhibition of human KASUMI-1 cell growth in a cell viability assay.

Consider 9 molecules from ChEMBL document CHEMBL1201861, “Genomics of Drug Sensitity in Cancer screening data, Wellcome Trust Sanger Institute”.

One may read the IC50 as the concentration that gives 50% inhibition. High values mean lower potency, low ones higher potency. Turning to `COc1cc2ncn(-c3cc(OCc4ccccc4C(F)(F)F)c(C(N)=O)s3)c2cc1OC` [GW843682X], the IC50 in assay [1] was 18.9 nM; in [2], 90.7 nM; in [3], 34.6 nM; in [4], 90.2 nM; in assay [5], over 256 nM; in [6] it was over 256 nM. Moreover, the IC50 in [7] is 8.55 nM; in assay [8], 13.8 nM; in assay [9], 99.2 nM; in assay [10], over 256 nM; in [11] it was over 256 nM; in [12], 63.3 nM. Also, the IC50 was 35.4 nM in [13], over 256 nM in assay [14] and over 256 nM in assay [15].

For the molecule `COc1cc2ncn(-c3cc(OCc4ccccc4S(C)(=O)=O)c(C#N)s3)c2cc1OC` [GSK-319347A], the 50% inhibitory concentration (IC50) in assay [1], in [2], in assay [3], in [4], in assay [5] and in assay [6] was over 5000 nM in each case. For the same molecule, the IC50 in assay [7], in [8], in assay [9], in assay [10], in assay [11] and in [12] was over 5000 nM each time. Moreover, the half-maximal inhibitory concentration (IC50) in [13], in [14] and in assay [15] was over 5000 nM throughout.

Turning to `N[C@@H](CSC(c1ccccc1)(c1ccccc1)c1ccccc1)C(=O)O` [S-TRITYL-L-CYSTEINE], the concentration for half-maximal inhibition (IC50) is over 5120 nM in [1]; 4350 nM in assay [2]; 1150 nM in [3]; 2830 nM in assay [4]; over 5120 nM in assay [5]; over 5120 nM in assay [6]. Moreover, the half-maximal inhibitory concentration (IC50) in assay [7] is 547 nM; in [8], 1150 nM; in assay [9] it was 2860 nM; in assay [10], over 5120 nM; in assay [11], over 5120 nM; in [12] it was over 5120 nM. Also, the concentration for half-maximal inhibition (IC50) is 1270 nM in [13], over 5120 nM in assay [14] and over 5120 nM in assay [15].

Regarding `Cc1ccc(-c2c(C(=O)CCl)n(CCCO)c3ncnc(N)c23)cc1`, the half-maximal inhibitory concentration (IC50) in assay [1] is over 4000 nM; in assay [2] it was over 4000 nM; in assay [3], 3930 nM; in [4] it was over 4000 nM; in [5] it was over 4000 nM; in assay [6], over 4000 nM. For the same molecule, the half-inhibitory concentration (IC50) in [7], in assay [8], in assay [9], in assay [10], in assay [11] and in assay [12] was over 4000 nM each time. For the same molecule, the IC50 in assay [13], in assay [14] and in [15] was over 4000 nM throughout.

For the molecule `COc1cc(N2CCN(C)CC2)ccc1Nc1ncc2c(n1)N(C)c1ccccc1C(=O)N2C`, the IC50 is over 8000 nM in [1]; over 8000 nM in [2]; over 8000 nM in assay [3]; over 8000 nM in assay [4]; 2820 nM in [5]; over 8000 nM in [6]. Also, the half-inhibitory concentration (IC50) in assay [7] was over 8000 nM; in [8] it was over 8000 nM; in assay [9], 7990 nM; in assay [10], over 8000 nM; in assay [11], 2230 nM; in [12], 5610 nM. Besides, the results for the IC50 in assay [13], in assay [14] and in [15] were 6350 nM, over 8000 nM and over 8000 nM, respectively.

For the molecule `CC(=O)O[C@H]1C(=O)[C@@]2(C)[C@H]([C@H](OC(=O)c3ccccc3)[C@]3(O)C[C@H](OC(=O)[C@H](O)[C@@H](NC(=O)c4ccccc4)c4ccccc4)C(C)=C1C3(C)C)[C@]1(OC(C)=O)CO[C@@H]1C[C@@H]2O` [PACLITAXEL], the IC50 is 10.5 nM in assay [1]; 54.4 nM in [2]; 30.2 nM in assay [3]; 58.8 nM in assay [4]; over 102 nM in [5]; over 102 nM in [6]. In addition, the 50% inhibitory concentration (IC50) in assay [7] was 9.3 nM; in [8], 31.3 nM; in [9], 9.99 nM; in [10], over 102 nM; in [11], over 102 nM; in assay [12] it was 69 nM. Further, the values for the IC50 in assay [13], in assay [14] and in [15] were 4.5 nM, over 102 nM and over 102 nM, respectively.

For the molecule `COc1cc(-c2nn([C@H]3CC[C@H](N4CCN(C(C)=O)CC4)CC3)c3ncnc(N)c23)ccc1NC(=O)c1cc2ccccc2n1C`, the IC50 was 4890 nM in assay [1]; over 5120 nM in assay [2]; over 5120 nM in assay [3]; over 5120 nM in [4]; over 5120 nM in [5]; over 5120 nM in [6]. Further, the 50% inhibitory concentration (IC50) in assay [7] is under 20 nM; in assay [8], over 5120 nM; in [9], over 5120 nM; in [10] it was over 5120 nM; in assay [11] it was over 5120 nM; in assay [12] it was over 5120 nM. Also, the IC50 in assay [13], in assay [14] and in assay [15] was over 5120 nM in each case.

`CCN(CC)CCNC(=O)c1c(C)[nH]c(/C=C2\C(=O)Nc3ccc(F)cc32)c1C` [SUNITINIB]: the IC50 in [1] is over 8000 nM; in assay [2] it was over 8000 nM; in assay [3], 33.8 nM; in [4] it was over 8000 nM; in [5], over 8000 nM; in [6], over 8000 nM. The IC50 is 1120 nM in assay [7]; over 8000 nM in assay [8]; over 8000 nM in assay [9]; over 8000 nM in assay [10]; over 8000 nM in [11]; 6430 nM in assay [12]. The figures for the IC50 in assay [13], in [14] and in [15] were 7550 nM, over 8000 nM and over 8000 nM, respectively.

As for `OCCCNc1cc(-c2ccnc(Nc3cccc(Cl)c3)n2)ccn1`, the IC50 in assay [1] was over 256 nM; in assay [2], 199 nM; in [3] it was 85.9 nM; in assay [4], over 256 nM; in assay [5], over 256 nM; in [6] it was over 256 nM. Also, the IC50 was 30.1 nM in assay [7]; 93.1 nM in assay [8]; 171 nM in [9]; over 256 nM in assay [10]; over 256 nM in assay [11]; 111 nM in assay [12]. Further, the IC50 is 124 nM in assay [13], over 256 nM in [14] and over 256 nM in assay [15].
